Results from patent US12258360B2, “Compositions and methods for treatment of anticancer-drug resistant cancers” (THE GEORGE WASHINGTON UNIVERSITY, priority 2020, dated 2025).

Test system: IGROV1 CR cells
Assay: SRB cell viability, synergy with cisplatin (combination index)
Type: cell-based, human
Method: Given that And-1 phosphorylation was positively correlated with cisplatin resistance in OC according the Examples above, it was next determined whether And-1 phosphorylation contributes to cell survival in response to cisplatin. The cell viability to cisplatin in IGROV1, OV90 and mice ID80 cells overexpressed with FLAG-And-1-WT, FLAG-And-1-T826A and phosphomimetic FLAG-And-1-T826E was examined. In brief, cells were seeded in 96-well plate at a density of 3,000-5,000 cells per well and treated with indicated reagents for different concentration. Three days after treatment, the cell viability was measured by Sulforhodamine B (SRB) assay. The IC50 values and CI index were further determined by compusyn software. Every experiment was done in triplicate and repeated three times. […] To confirm And-1 was the primary target of ATR to promote platinum-resistance, the sensitivity of IGROV1 cells to cisplatin was examined using genetic analyses.
To determine whether And-1 inhibitors can overcome cisplatin resistance in OC cells, the synergy of And-1 inhibitors and cisplatin in IGROV1 CR cells was examined.

SMILES: OB1OCc2cc(/C=C/c3ccc(Cl)c(Cl)c3)ccc21 [CH3]
- synergy with cisplatin to inhibit cell proliferation (combination index): significant synergy
